What is called pest or weed control is the degree to which the test organism was suppressed or injured, in per cent. Higher therefore signals a strong effect.

Holding throughout (format): in vivo
Assay [1] relates to Alopecurus myosuroides (ALOMY). Put plainly: Pre-emergence biological efficacy (percentage damage). The following applies: Alopecurus myosuroides, 312 h, evaluated after 13 days, 100=total damage, 0=no damage; for pest or weed control at 1000 g/ha: dose 1,000 g/ha. Here is the method:
(§1) Seeds of Alopecurus myosuroides (ALOMY), Setaria faberi (SETFA), Echinochloa crus-galli (ECHCG), Solanum nigrum (SOLNI), Amaranthus retoflexus (AMARE) and Ipomea hederaceae (IPOHE) were sown in standard soil in pots. After cultivation for one day under controlled conditions in a glasshouse (at 24/16° C., day/night; 14 hours light; 65% humidity), the plants were sprayed with an aqueous spray solution derived from the formulation of the technical active ingredient in acetone/water (50:50) solution containing 0.5% Tween 20 (polyoxyethylene sorbitan monolaurate, CAS RN 9005-64-5) to give a final dose of 250 or 1000 g/ha of test compound. The test plants were then grown under controlled conditions in the glasshouse (at 24/16° C., day/night; 14 hours light; 65% humidity) and watered twice daily. After 13 days the test was evaluated (100=total damage to plant; 0=no damage to plant).

Assay [2] has as its system Amaranthus retoflexus (AMARE). The description is as above. The following applies: Amaranthus retroflexus, 312 h, evaluated after 13 days, 100=total damage, 0=no damage; for pest or weed control at 1000 g/ha: dose 1,000 g/ha. How it is done: as §1
The subject of assay [3] is Echinochloa crus-galli (ECHCG). Described as above. The following applies: Echinochloa crus-galli, 312 h, evaluated after 13 days, 100=total damage, 0=no damage; for pest or weed control at 1000 g/ha: dose 1,000 g/ha. Here is the method:
as §1

The subject of assay [4] is Ipomea hederaceae (IPOHE). The description is as above. To be noted: Ipomoea hederacea, 312 h, evaluated after 13 days, 100=total damage, 0=no damage; for pest or weed control at 1000 g/ha: dose 1,000 g/ha. How it is done: as §1
Assay [5] deals with Setaria faberi (SETFA). The assay is described as above. The following applies: Setaria faberi, 312 h, evaluated after 13 days, 100=total damage, 0=no damage; for pest or weed control at 1000 g/ha: dose 1,000 g/ha. Here is the method:
as §1

Assay [6] deals with Solanum nigrum (SOLNI). Described as above. To be noted: Solanum nigrum, 312 h, evaluated after 13 days, 100=total damage, 0=no damage; for pest or weed control at 1000 g/ha: dose 1,000 g/ha. Here is the method:
as §1

Assay [7] deals with Alopecurus myosuroides (ALOMY). The assay is described as follows: Post-emergence biological efficacy (percentage damage). To be noted: Alopecurus myosuroides, 312 h, evaluated after 13 days, 100=total damage, 0=no damage; for pest or weed control at 1000 g/ha: dose 1,000 g/ha. How it is done: as §1, with “for 8 days” for “for one day”, “grown on” for “grown”, “in a” for “in the”

Assay [8] has as its system Amaranthus retoflexus (AMARE). The assay is described as above. The following applies: Amaranthus retroflexus, 312 h, evaluated after 13 days, 100=total damage, 0=no damage; for pest or weed control at 1000 g/ha: dose 1,000 g/ha. How it is done: as §1, with “for 8 days” for “for one day”, “grown on” for “grown”, “in a” for “in the”
For assay [9], the system named is Echinochloa crus-galli (ECHCG). The description is as above. The following applies: Echinochloa crus-galli, 312 h, evaluated after 13 days, 100=total damage, 0=no damage; for pest or weed control at 1000 g/ha: dose 1,000 g/ha. How it is done: as §1, with “for 8 days” for “for one day”, “grown on” for “grown”, “in a” for “in the”
Assay [10] concerns Ipomea hederaceae (IPOHE). The description is as above. The following applies: Ipomoea hederacea, 312 h, evaluated after 13 days, 100=total damage, 0=no damage; for pest or weed control at 1000 g/ha: dose 1,000 g/ha. Here is the method: as §1, with “for 8 days” for “for one day”, “grown on” for “grown”, “in a” for “in the”
Assay [11] concerns Setaria faberi (SETFA). The description is as above. To be noted: Setaria faberi, 312 h, evaluated after 13 days, 100=total damage, 0=no damage; for pest or weed control at 1000 g/ha: dose 1,000 g/ha. Here is the method: as §1, with “for 8 days” for “for one day”, “grown on” for “grown”, “in a” for “in the”
For assay [12], the system named is Solanum nigrum (SOLNI). Described as above. The following applies: Solanum nigrum, 312 h, evaluated after 13 days, 100=total damage, 0=no damage; for pest or weed control at 1000 g/ha: dose 1,000 g/ha. How it is done:
as §1, with “for 8 days” for “for one day”, “grown on” for “grown”, “in a” for “in the”

On to `CCC/C=C/c1c(N)nc(C2CC2)nc1C(=O)OC` [Compound 2-65, 4-Amino-2-cyclopropyl-6-methoxycarbonyl-5-(pent-1-enyl)-pyrimidine], for which the pest or weed control at 250 g/ha (in assay [1]; in assay [2]; in assay [3]; in assay [4]; in the assay with Setaria faberi (SETFA) [5]; with Solanum nigrum (SOLNI) [6]) was 0% throughout. Besides, the pest or weed control at 250 g/ha in [7] stood at 0%; in assay [8], 20%; in [9], 0%; in assay [10] it was 40%; with Setaria faberi (SETFA) [11], 0%; in the assay with Solanum nigrum (SOLNI) [12], 40%.
As to `COC(=O)c1nc(C2CC2)nc(N)c1C=C(C)C` [Compound 2-69, 4-Amino-2-cyclopropyl-6-methoxycarbonyl-5-(2-methylprop-1-enyl)-pyrimidine], the pest or weed control at 1000 g/ha is 10% in assay [1]; 100% in [2]; 0% in assay [3]; 70% in [4]; 0% with Setaria faberi (SETFA) [5]; 90% in the assay on Solanum nigrum (SOLNI) [6]. In addition, the pest or weed control at 1000 g/ha in assay [7] is 10%; in [8], 20%; in assay [9], 0%; in [10], 70%; in the assay with Setaria faberi (SETFA) [11] it was 10%; with Solanum nigrum (SOLNI) [12], 80%.
Turning to `COC(=O)c1nc(C2CC2)nc(N)c1C#CC(C)(C)C` [Compound 2-77, 4-Amino-2-cyclopropyl-5-(3,3-dimethylbut-1-ynyl)-6-methoxycarbonyl-pyrimidine], the pest or weed control at 250 g/ha (in [1]; in assay [2]; in assay [3]; in assay [4]; in the assay on Setaria faberi (SETFA) [5]; with Solanum nigrum (SOLNI) [6]) was 0% in each case. The pest or weed control at 250 g/ha in assay [7] was determined as 0%; in assay [8] it was 30%; in assay [9], 0%; in assay [10], 70%; in the assay on Setaria faberi (SETFA) [11], 0%; in the assay with Solanum nigrum (SOLNI) [12], 40%.
With `COC(=O)c1nc(C2CC2)nc(N)c1C#C[Si](C)(C)C` [Compound 2-78, 4-amino-2-cyclopropyl-6-methoxycarbonyl-5-(trimethylsilylethynyl)-pyrimidine], the pest or weed control at 1000 g/ha was found to be 20% in [1]; 90% in [2]; 30% in [3]; 100% in assay [4]; 10% in the assay with Setaria faberi (SETFA) [5]; 90% in the assay on Solanum nigrum (SOLNI) [6]. Besides, the pest or weed control at 1000 g/ha in assay [7] is 30%; in [8], 100%; in assay [9], 60%; in assay [10], 100%; with Setaria faberi (SETFA) [11], 60%; in the assay with Solanum nigrum (SOLNI) [12], 100%.
On to `COC(=O)c1nc(C2CC2)nc(N(C)C)c1C` [Compound 2-221, 2-Cyclopropyl-4-dimethylamino-6-methoxycarbonyl-5-methylpyrimidine], for which the pest or weed control at 1000 g/ha in [1] was determined as 30%; in assay [2], 60%; in assay [3], 0%; in assay [4], 70%; in the assay with Setaria faberi (SETFA) [5] it was 0%; in the assay on Solanum nigrum (SOLNI) [6] it was 60%. Also, the pest or weed control at 1000 g/ha stood at 20% in assay [7]; 100% in [8]; 70% in assay [9]; 80% in [10]; 60% with Setaria faberi (SETFA) [11]; 80% with Solanum nigrum (SOLNI) [12].
For `C=Cc1c(C(=O)OC)nc(C2CC2)nc1N(C)C` [Compound 2-225, 2-Cyclopropyl-4-dimethylamino-5-ethenyl-6-methoxycarbonyl-pyrimidine], the pest or weed control at 1000 g/ha in [1] amounted to 0%; in assay [2], 40%; in [3] it was 0%; in assay [4] it was 20%; in the assay with Setaria faberi (SETFA) [5], 0%; with Solanum nigrum (SOLNI) [6], 0%. In addition, the pest or weed control at 1000 g/ha in assay [7] turned out to be 0%; in [8] it was 40%; in assay [9], 0%; in [10] it was 30%; in the assay with Setaria faberi (SETFA) [11], 0%; with Solanum nigrum (SOLNI) [12], 50%.
`COC(=O)COc1nc(C2CC2)nc(N)c1C` [Compound 2-362, 4-amino-2-cyclopropyl-6-methoxycarbonylmethoxy-5-methylpyrimidine]: the pest or weed control at 1000 g/ha turned out to be 40% in assay [1]; 40% in [2]; 10% in assay [3]; 30% in assay [4]; 40% in the assay on Setaria faberi (SETFA) [5]; 10% in the assay on Solanum nigrum (SOLNI) [6]. In addition, the pest or weed control at 1000 g/ha came out at 40% in assay [7]; 80% in assay [8]; 60% in assay [9]; 80% in [10]; 70% with Setaria faberi (SETFA) [11]; 80% in the assay on Solanum nigrum (SOLNI) [12].
For `C=Cc1c(N)nc(SC)nc1OCC(=O)OC` [Compound 2-366, 4-amino-5-ethenyl-6-methoxycarbonylmethoxy-2-methylthio-pyrimidine], the pest or weed control at 1000 g/ha (in assay [1]; in [2]; in assay [3]; in [4]; with Setaria faberi (SETFA) [5]; in the assay on Solanum nigrum (SOLNI) [6]) was 0% in each case. Further, the pest or weed control at 1000 g/ha in [7] worked out at 0%; in assay [8], 0%; in [9] it was 0%; in assay [10], 0%; with Setaria faberi (SETFA) [11], 0%; with Solanum nigrum (SOLNI) [12], 20%.
For `Cc1c(Cl)nc(C2CC2)nc1OCC(=O)O` [Compound 2-375, (4-chloro-2-cyclopropyl-5-methyl-pyrimidin-6-yloxy)-acetic acid], the pest or weed control at 1000 g/ha was determined as 0% in [1]; 0% in assay [2]; 0% in assay [3]; 20% in [4]; 0% with Setaria faberi (SETFA) [5]; 0% in the assay with Solanum nigrum (SOLNI) [6]. The pest or weed control at 1000 g/ha came out at 0% in assay [7]; 10% in assay [8]; 0% in assay [9]; 20% in assay [10]; 0% with Setaria faberi (SETFA) [11]; 10% in the assay on Solanum nigrum (SOLNI) [12].

The values above are taken from patent US20120053053A1, “PYRIMIDINE DERIVATIVES AND THEIR USE AS HERBICIDES” (SYNGENTA CROP PROTECTION, LLC, priority 2009, published 2012).
